In patent US8691867B2, “Use of benzo-fused heterocycle sulfamide derivatives for the treatment of substance abuse and addiction” (Janssen Pharmaceutica NV, priority 2005, dated 2014):

Legend:
[1] = tested on: selectively-bred alcohol preferring rats; assay: Alcohol Preferring Rats In Vivo Model (two-bottle choice); set-up: species or system rat; conditions: for 6 hr Ethanol (alcohol intake) / 6 hr Preference (alcohol preference): 6 h after administration; for 6 hr Ethanol (alcohol intake) / 6 hr Preference (alcohol preference) / 24 hr Ethanol (alcohol intake) / 24 hr Preference (alcohol preference): mean ± SEM; for 24 hr Ethanol (alcohol intake) / 24 hr Preference (alcohol preference): 24 h after administration
Experimental: Adult male selectively-bred alcohol preferring rats (which are known in the art to be useful for the study of the effect of test compounds on vountary alcohol intake) were grouped into three groups: vehicle and Compound #8 (50 and 100 mg/kg, po). Rats were housed individually in wire mesh cages under a constant room temperature of 22±1° C. and 12:12 light-dark cycle (8:00-20:00, dark). The animals were fed Agway Prolab Rat/Mouse/ Hamster 3000 formula and water ad libitum.
Alcohol intake was determined using the standard two-bottle choice method. Animals were first given free access to water in a graduated Richter tube for 2 days. Then they were given access to only a solution of 10% (v/v) ethanol for 3 consecutive days. During this period animals became accustomed to drinking from Richter tubes and to the taste and pharmacological effects of alcohol. Thereafter, they were given free access to both water and a solution of 10% alcohol for at least 4 consecutive weeks and throughout the study period. Rats had free access to food. Water and alcohol intake were recorded at 4, 6 and 24 hours after the treatment, whereas food intake was measured at 24 hour. Animals' body weight was measured every day.
After establishment of a stable baseline for alcohol, food, and water intake, rats were administered either vehicle or Compound #8 via oral gavage using a cross-over design with random assignment. To be able to compare the efficacy of these compounds on alcohol intake with an established FDA-approved drug, naltrexone, was included as a positive control. Same rats were given an oral dose of naltrexone (20mg/kg). The interval between treatments was at least 3 days. Alcohol and water intake were recorded 4, 6 and 24 h after the drug administration and food intake was recorded at 24 hr. A total of 8-10 animals per group were used.
The results below are presented as means ±SEM. Alcohol intake (g/kg) was calculated by multiplying the volume of alcohol consumed in ml by 10% and 0.7893 (ethanol density)/body weight in kg. Alcohol preference, expressed as percentage, was calculated as follows: (volume of alcohol consumed in ml/total fluid intake in ml)×100 (Rezvani and Grady, 1994; Rezvani et al., 1997). Statistical differences between drug-treated and control groups were determined by using ANOVA and Turkey Student's t test for multiple comparison.

NS(=O)(=O)NCC1CCc2ccccc2O1 (stereo not drawn)
melting point: 100 to 101 °C

NS(=O)(=O)NCCC1COc2ccccc2O1 (stereo not drawn)
melting point: 101 to 103 °C

NS(=O)(=O)NC[C@H]1COc2cc(Cl)c(Cl)cc2O1
melting point: 119 to 121 °C

CN(C)S(=O)(=O)NCC1COc2ccccc2O1 (racemic)
melting point: 76 to 78 °C

CN(CC1COc2ccccc2O1)S(N)(=O)=O (racemic)
melting point: 97 to 98 °C

NS(=O)(=O)NC[C@H]1COc2cc(Cl)ccc2O1 [Compound #8, (2S)-(−)-N-(6-Chloro-2,3-dihydro-benzo[1,4]dioxin-2-ylmethyl)-sulfamide]
6 hr Ethanol (alcohol intake) ([1]; 50 mg/kg po): 1.28 ± 0.25 g/kg
6 hr Preference (alcohol preference) ([1]; 50 mg/kg po): 67 ± 11%
24 hr Ethanol (alcohol intake) ([1]; 50 mg/kg po): 4.79 ± 0.5 g/kg
24 hr Preference (alcohol preference) ([1]; 50 mg/kg po): 77 ± 7%
6 hr Ethanol (alcohol intake) ([1]; 100 mg/kg po): 1.33 ± 0.17 g/kg
6 hr Preference (alcohol preference) ([1]; 100 mg/kg po): 75 ± 8%
24 hr Ethanol (alcohol intake) ([1]; 100 mg/kg po): 4.35 ± 0.66 g/kg
24 hr Preference (alcohol preference) ([1]; 100 mg/kg po): 70 ± 9%
effect on ethanol consumption ([1]; alcohol-preferring rats, 6 h post-dosing, 50 and 100 mg/kg dose): decreased ethanol consumption

O=C1CC[C@@]2(O)[C@H]3Cc4ccc(O)c5c4[C@@]2(CCN3CC2CC2)[C@H]1O5 [Naltrexone, naltrexone, reference compound]
6 hr Ethanol (alcohol intake) ([1]; 20 mg/kg oral): 0.77 ± 0.24 g/kg
6 hr Preference (alcohol preference) ([1]; 20 mg/kg oral): 64 ± 12%
24 hr Ethanol (alcohol intake) ([1]; 20 mg/kg oral): 4.48 ± 0.57 g/kg
24 hr Preference (alcohol preference) ([1]; 20 mg/kg oral): 76 ± 9%
